These are literature values, as cited in patent publication US20090291140A1, “TREATMENT OF DY[…] TRANSDERMAL ADMINISTRATION OF NONSTEROIDAL ANTI-INFLAMMATORY DRUGS” (priority 2008, published 2009).

The data set has as its target T1, 5-lipoxygenase (Homo sapiens, UniProt P09917).
T1 sequence (P09917 1-674): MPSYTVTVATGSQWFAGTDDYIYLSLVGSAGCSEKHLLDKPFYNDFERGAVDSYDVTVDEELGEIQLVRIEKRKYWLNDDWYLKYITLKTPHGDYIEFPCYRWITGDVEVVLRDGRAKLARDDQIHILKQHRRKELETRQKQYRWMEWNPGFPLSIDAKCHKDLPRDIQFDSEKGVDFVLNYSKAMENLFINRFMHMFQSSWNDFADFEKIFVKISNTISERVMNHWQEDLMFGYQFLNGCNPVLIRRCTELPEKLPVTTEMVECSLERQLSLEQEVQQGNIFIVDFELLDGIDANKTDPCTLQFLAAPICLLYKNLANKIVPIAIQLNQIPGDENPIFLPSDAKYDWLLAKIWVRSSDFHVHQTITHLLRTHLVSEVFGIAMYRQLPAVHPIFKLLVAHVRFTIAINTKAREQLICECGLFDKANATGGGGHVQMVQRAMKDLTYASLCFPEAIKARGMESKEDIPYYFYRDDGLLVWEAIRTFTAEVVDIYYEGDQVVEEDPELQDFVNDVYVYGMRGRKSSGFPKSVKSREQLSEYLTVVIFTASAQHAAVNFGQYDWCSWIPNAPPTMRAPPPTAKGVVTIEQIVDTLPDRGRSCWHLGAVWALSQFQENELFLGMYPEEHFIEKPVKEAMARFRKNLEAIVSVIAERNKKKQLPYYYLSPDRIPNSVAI
The following applies: in-vitro studies.

As for `Cc1ccc(Cl)c(Nc2ccccc2C(=O)O)c1Cl` [meclofenamate], the “inhibition of the activity of 5-lipoxygenase” value is on record as “inhibit the activity of 5-lipoxygenase”.
